Laboratory results from patent US10772876B2, “Enhancers of Notch signaling and the use thereof in the treatment of cancers and malignancies medicable by upregulation of Notch” (XENIOPRO GmbH, priority 2016, dated 2020).
“Also recorded” adds a separate entry of the source.

What was measured:
[1] = tested on: Notch1 full-length receptor; test: Notch1 full-length receptor driven luciferase reporter assay (HeLa co-culture with DLL4 ligand expressing HeLa cells); assay type: cell-based; settings: for Notch signaling relative to the DMSO control: control treatments, FIG. 1
Method: As used herein, the term “enhancing Notch signaling” refers to an effect on a cellular Notch-driven luciferase reporter assay, by which the Notch signaling enhancing properties of the compounds of the invention are determined. The Notch-driven luciferase reporter assay consists of HeLa cells engineered to express the Notch1 full length receptor, and to harbor a CSL-driven firefly luciferase expression construct as well as a Notch independent Renilla luciferase construct for the purpose of normalisation. These cells are co-cultured with engineered HeLa cells expressing the Notch ligand D114 to induce Notch signaling, thus to induce the expression of the firefly luciferase enzyme. The intensity of a luciferase-driven reporter signal is considered as a measure for Notch signaling.
A compound is considered as having an effect of enhancing Notch signaling if said compound results relative to DMSO in ≥1.5-fold increase, preferably in ≥2.0-fold increase, more preferably in ≥2.5-fold increase and most preferably in ≥3.0-fold increase of the Luciferase-driven reporter signal in the frame of the named Notch-dependent luciferase reporter assay.
FIG. 1. […] The indicated compounds were tested at 10 μM concentration in a Notch-driven luciferase reporter assay. HeLa cells had been engineered to express the Notch1 full-length receptor, the firefly luciferase (expression dependent on Notch signaling) and the renilla luciferase (expression independent on Notch signaling). Cells were co-cultured in a 96 well-plate with DLL4 ligand expressing HeLa cells to induce Notch signaling and simultaneously treated with DMSO or indicated compounds for 20 h. Notch signaling activation was then quantified by measuring luciferase-dependent luminescence intensities upon treatment with appropriate substrates. The firefly values were normalized against the renilla values to obtain the relative luminescence intensities (represented by the bars).
(§1) A brief description of the assay is given in the description of FIG. 1. If not stated differently, all assays were performed using a Notch1 full-length receptor driven reporter system. Values are normalized against DMSO. a) V126 (black rhombi) was tested at the indicated concentrations. […] The control readouts for DMSO (black), CB103 (white), V126 at 10 μM and V126 at 1 μM (diagonal lines) were taken as usual after incubation for 20 h. c) V126 was tested in combination with an equimolar amount of the y-secretase inhibitor DAPT or the Notch inhibitor CB103 at 10 μM concentration each. d) V126 and the indicated compounds were tested at 10 μM in a luciferase reporter assay driven by the Notch2 receptor isoform. e) V126 and the indicated compounds were tested at 10 μM in a luciferase assay driven by the constitutively active form of the Notch1 receptor (N1ICD, Notch1 intracellular domain).

[2] = tested on: N1ICD, Notch1 intracellular domain; test: Luciferase assay driven by the constitutively active form of the Notch1 receptor (N1ICD); assay type: cell-based; settings: 10 μM, FIG. 2e
Method: as §1
(§2) To rule out that V126 is directly enhancing the activity of the luciferase enzyme, the Notch reporter assay was challenged by applying V126 treatment immediately prior to the readout. […] Moreover, the Notch-enhancing activity of V126 could be partially and completely rescued by combinational equimolar treatment with the γ-secretase inhibitor DAPT or the Notch inhibitor CB103, respectively, further confirming the ability of V126 to upregulate Notch signaling (FIG. 2c).

[3] = tested on: Notch2 full-length receptor; test: Luciferase reporter assay driven by the Notch2 receptor isoform (N2FL); assay type: cell-based; settings: 10 μM, FIG. 2d
Method: as §1, §2

SCC13 cells = test: Involucrin protein expression in SCC13 cells (Western Blot); assay type: cell-based, human; settings: 10 μM, 48 h, β-actin as loading control
Method: Cells were treated with DMSO or V126 at a concentration of 10 μM for 48 h. Total cell lysates were applied on Western Blot analysis using β-actin as loading control.
Notch activation in the skin is known to drive differentiation of keratinocytes resulting in the induction of differentiation markers such as involucrin (C. Nowell, Cold Spring Harb Perspect Med. 2013, 3, 12), (G. P. Dotto, Oncogene 2008, 27, 5115-5123). […] In the spleen, marginal zone B-cells (MZBs) and follicular B-cells (FoBs) are the two main types of mature B-cells, both of which develop from the same precursor cells, namely the transitional B-cells (TBs). Notch2 signaling was reported to play a crucial role in the development of MZBs (S. Pillai, Nat. Rev. Immunol. 2009, 9, 767-777) and increased Notch2 signaling in the spleen leads to an expansion of the MZB compartment (F. Hampel, Blood 2011, 118, 24, 6321-6331). In contrast, the development of FoBs is not dependent on Notch signaling. To evaluate the effect of V126 in vivo, C57BL/6N mice were injected intraperitoneally with 25 mg/kg V126 once a day for one week. The impact of V126 on the different B-cell compartments in these mice was analyzed by flow cytometry on splenocytes, showing that V126 was capable to double the number of MZBs as compared to the control, whereas the FoB numbers were not affected (FIG. 4).

[4] = tested on: splenic marginal zone B-cells (MZB); test: Splenic B-cell compartments in mice by flow cytometry; assay type: in vivo, C57BL/6N mice; settings: 25 mg/kg intraperitoneal once a day for one week
Method: C57BL/6N mice were treated with 25 mg/kg V126 by intraperitoneal injection once a day for one week. a) Spleen cells were analyzed by flow cytometry. Shown are two representative plots of control (Ctrl., n=5) and V126 (n=4) treatments displaying the B220+cell (total B-cell) population. The gates encircle the respective MZB, FoB, and TB fractions with the corresponding numbers indicating the relative proportions (in percentage) of cells out of the B220+population. b) The bar diagrams quantify the relative MZB percentages from a) (left), and the recalculated total numbers of splenic MZBs (right). FoBs: Follicular B-cells, TBs: Transitional B-cells, see text.
Notch activation in the skin is known to drive differentiation of keratinocytes resulting in the induction of differentiation markers such as involucrin (C. Nowell, Cold Spring Harb Perspect Med. 2013, 3, 12), (G. P. Dotto, Oncogene 2008, 27, 5115-5123). […] In the spleen, marginal zone B-cells (MZBs) and follicular B-cells (FoBs) are the two main types of mature B-cells, both of which develop from the same precursor cells, namely the transitional B-cells (TBs). […] The impact of V126 on the different B-cell compartments in these mice was analyzed by flow cytometry on splenocytes, showing that V126 was capable to double the number of MZBs as compared to the control, whereas the FoB numbers were not affected (FIG. 4).

luciferase enzyme = molecular target: T1, luciferase enzyme (Photinus pyralis, UniProt P08659); test: Direct influence on luciferase enzyme activity (treatment 5 min prior to readout of the Notch reporter assay); assay type: cell-based; settings: 10 μM and 1 μM, 5 min prior to the readout, FIG. 2b
T1 construct: expressed in transfected cells; host or cells: HeLa cells engineered with Notch1 full-length receptor, firefly and Renilla luciferase constructs, co-cultured with DLL4-expressing HeLa cells
T1 sequence (P08659 whole entry): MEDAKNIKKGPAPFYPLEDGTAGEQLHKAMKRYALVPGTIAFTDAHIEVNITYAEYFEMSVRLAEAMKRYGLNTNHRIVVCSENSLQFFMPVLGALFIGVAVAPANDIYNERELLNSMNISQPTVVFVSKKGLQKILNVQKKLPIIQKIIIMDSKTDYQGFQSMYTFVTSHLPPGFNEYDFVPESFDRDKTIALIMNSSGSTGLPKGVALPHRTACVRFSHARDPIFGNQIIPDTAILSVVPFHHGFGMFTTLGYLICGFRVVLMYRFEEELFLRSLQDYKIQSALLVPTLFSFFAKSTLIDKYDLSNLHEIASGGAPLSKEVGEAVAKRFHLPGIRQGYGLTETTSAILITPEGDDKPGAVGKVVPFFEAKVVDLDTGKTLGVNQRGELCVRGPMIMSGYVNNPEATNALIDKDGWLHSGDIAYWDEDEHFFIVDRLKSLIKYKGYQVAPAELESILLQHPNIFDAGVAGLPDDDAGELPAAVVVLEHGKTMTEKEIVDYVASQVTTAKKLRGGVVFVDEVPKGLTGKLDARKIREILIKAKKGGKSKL
Method: as §1, §2

CD4 T cells = test: IFN-γ production and secretion of CD4 T cells under Th1 polarizing conditions; assay type: cell-based, mice; settings: 10 μM, 96 hours, intracellular IFN-γ and Elisa of culture supernatants
Method: FIGS. 5A-5C The Notch signaling enhancing compound V126 induces increased IFNy production and secretion in vitro. CD4 T cells isolated from naive CS7B/6 mice were cultured on plate bound α-CD3/α-CD28 (both 0.25μg/m1) under Th1 polarizing conditions (rlL-12, (5ng/ml) and anti-IL-4 (clone:11B11; […])) in the presence of DMSO, DAPT as y-secretase inhibitor and V126 at 10 μM. 96 hours after initiation of the culture, intracellular IFN-y levels a) and CD25 surface expression b) were assessed on PMA/lonomycin stimulated CD4 T cells. c) IFN-y cytokine levels were assessed in culture supernatants by Elisa under the same conditions as in a) and b).

SMILES: CC(C)(C)c1ccc(Oc2ccc(N)cn2)cc1 [CB103, reference compound]
- Notch signaling relative to the DMSO control ([1]; 20 h): decrease in Notch signaling

SMILES: CCCC(CCC)C(=O)O [valproic acid, reference compound]
- effect on Notch signaling ([1]; concentrations up to 40 μM, FIG. 2a): did not show any effect

SMILES: CC(C)(C)c1ccc(Oc2ccc(C(=O)O)cc2)cc1 [V126, 4-(4-(tert-Butyl)phenoxy)benzoic acid]
- enhancement of N1ICD driven signaling [2]: enhance the signaling cascade taking place downstream of ligand-mediated activation of Notch signaling
- enhancement of Notch2 receptor driven signaling [3]: enhance signaling derived from different Notch receptor isoforms
- expression of the differentiation marker involucrin at the protein level (SCC13 cells): increased protein expression
- FoB (follicular B-cell) numbers [4]: not affected
- number of splenic MZBs compared to the control [4]: increase; also recorded: double
- luciferase values after short-term treatment immediately prior to the readout (luciferase enzyme): in the range of the DMSO control level
- IFNγ production and secretion (CD4 T cells): increased
- luciferase values after treatment for 20 h in the very same readout ([1]; 10 μM and 1 μM, 20 h, FIG. 2b): expected upregulation
- rescue of the Notch-enhancing activity by combinational equimolar treatment with CB103 ([1]; V126 plus Notch inhibitor CB103, 10 μM each, FIG. 2c): completely
- rescue of the Notch-enhancing activity by combinational equimolar treatment with DAPT ([1]; V126 plus γ-secretase inhibitor DAPT, 10 μM each, FIG. 2c): partially
- enhancement of Notch signaling ([1]; concentration of 1↔M, FIG. 2a): strongly enhanced Notch signaling

SMILES: C[C@H](NC(=O)Cc1cc(F)cc(F)c1)C(=O)N[C@H](C(=O)OC(C)(C)C)c1ccccc1 [DAPT, reference compound]
- Notch signaling relative to the DMSO control ([1]; 20 h): decrease in Notch signaling
